# Key:
# [1] = system: DIO-NASH mice; experiment: DIO animal model of NAFLD/NASH (Example 15); type: in vivo; settings: 0.03% in AMLN diet, vs DIO-NASH vehicle
# Experimental: The effect of 8 weeks of treatment for the indicated compounds on metabolic liver disease in pre-biopsied, 43-week old male DIO-NASH mice was evaluated (12 animals per group). Male C57BL/6JRj mice were fed 40% fat (18% trans-fat), 40% carbohydrate (20% fructose), and 2% Cholesterol (AMLN) diet for 38 weeks. All mice entering the experiment were pre-biopsied stratified based on liver biopsy (only animals with fibrosis stage ≥1 and steatosis score ≥2 were included). Animals were randomized into groups based on Col1a1 immunostaining. Mice were treated for a total of 8 weeks of dosing (drugs in diet, ad lib). […] Elafibranor was supplied by the vendor. Body weight was measured daily for the entire study period. Food intake was monitored daily for first 14 days and then twice a week until study end. Day 28 collection of tail vein blood/serum and feces. Terminal plasma was collected for biomarker determination of liver transaminases (ALT, AST), triglyceride and cholesterol. Terminal liver was removed, weighed, and sampled for 1) FFPE (histology), 2) frozen (biochemistry and nucleic acid). Liver biopsy histology: pre- and post-treatment NAFLD Activity Score (HE) including Fibrosis Stage (PSR), 2) post-treatment steatosis (HE), 3) post-treatment lipid-droplet #+size (HE), 4) post-treatment Galectin-3 (IHC), 5) pre- and post-treatment Collagen 1a1 (IHC), 6) post-treatment α-SMA (IHC). […]
# [2] = system: Primary human subcutaneous adipocytes; experiment: Glucose uptake in human subcutaneous adipocytes, insulin sensitive model; type: cell-based
# Experimental: Primary human subcutaneous adipocytes (Zen Bio, Research Triangle Park, N.C.) were differentiated for two weeks prior to treatment. Cells were treated with indicated compounds diluted in (dimethyl-sulfoxide) DMSO in serum free medium for 24 hours in triplicate. After 24 hours, media was exchanged for assay buffer and the compounds were added again but in the presence of approximately 1 nM insulin. Glucose uptake was initiated with the addition of a cocktail containing 2-deoxyglucose and ^3H-2-deoxyglucose and allowed to incubate for 2 hours. Cells were washed, lysed and glucose uptake was measured as counts per well. As an assay control, 100 nM of insulin was used during the 2 hours of glucose uptake. […] Statistical changes in glucose uptake were determined by way ANOVA and compared to DMSO.
# [3] = system: Primary human subcutaneous adipocytes; experiment: Glucose uptake in human subcutaneous adipocytes, insulin resistant model; type: cell-based
# Experimental: As described above, primary human subcutaneous adipocytes were differentiated for two weeks prior to treatment. To induce an insulin resistant state, cells were treated in serum free Dulbecco's Modified Eagle Medium (high glucose) and […] for 24 hours. Cells were simultaneously treated with compounds diluted in DMSO for 24 hours. As described above, after 24 hours, media was exchanged for assay buffer and the compounds were added again but in the presence of approximately 1 nM insulin. Cells were washed and lysed after 2 hours and glucose uptake was measured. […] Statistical changes in glucose uptake were determined by way ANOVA and compared to DMSO.
# [4] = system: AhR; experiment: AhR activation in Caco-2 cells through CYP1A1 mRNA expression
# Experimental: Caco-2 cells from American Type Culture Collection (ATCC) were plated in a sterile tissue culture treated 96-well plate (ThermoFisher) at […] per well, and grown overnight at 37° C., 5% CO2 in DMEM complete (Gibco) in order to achieve confluence. After the incubation medium was aspirated from the Caco-2 monolayers, tissues were then washed with 200 μL of warmed PBS solution, and subsequently 190 μL of pre-warmed growth medium was added to each well. Compounds of interest were diluted at a 20× concentration in growth medium containing 2% DMSO, and 10 μL of compound solutions were added to respective wells in triplicate. Compounds where incubated overnight at 37° C., 5% CO2. 2-(1′H-indole-3′-carbonyl)-thiazole-4-carboxylic acid methyl ester (ITE) was used as the positive control for AhR activation at 1 and 100 μM concentrations. At the end of the incubation, medium was aspirated off of the Caco-2 cells, and washed with 100 μL of cold PBS solution. RNA was extracted via the TaqMan™ Gene Expression Cells-to-CT™ Kit (ThermoFisher) according to the manufacturers protocol. The QuantStudio 6 Flex (Applied Biosciences) was used to analyze mRNA levels of CYP1A1 using GAPDH as the endogenous control. TaqMan™ probe sets for both genes were acquired from ThermoFisher. Samples were run in triplicate and data was analyzed using the QuantStudio software and reported as linear (Table 1) and log 2(ΔΔCT) values. Statistical analysis was performed using a two-tailed t-test comparing CYP1A1 levels in the presence of each individual compound to the vehicle negative control.
# [5] = system: Caco-2 colonocytes; experiment: Human Caco-2 barrier integrity assay (TEER); type: cell-based; settings: 48 hours
# Experimental: Caco-2 colonocytes were maintained at 37° C. and 5% CO2 in Dulbecco's Modified Eagle Medium (DMEM) and supplemented with 10% FBS, 1% NEAA, 1% penicillin-streptomycin. At 70-80% confluency, cells were trypsinized and seeded in 0.4 cm^2 transwell collagen I coated membranes with supplemented DMEM in both apical and basolateral compartments. Cells were seeded at a density of 200,000 cells per well and maintained for 10 days to form a polarized barrier with a TransEpithelial Electrial Resistance (TEER) reading above 1000Ω. On the first day of the assay, initial TEER readings were taken and cytokines were added to the basolateral media (50 ng/mL TNFα, 25 ng/mL IFNγ and 10 ng/mL IL-1β) to reduce barrier integrity while compounds diluted in (dimethylsulfoxide) DMSO were added to the apical media in triplicate. After 48 hours, TEER readings were taken again and viability was measured by CellTiter 96® AQueous One Solution Cell Proliferation Assay (Promega). The percent change in TEER over the 48 hours was determined and normalized to the 0.1% DMSO control (Table 6).
# [6] = system: Mouse 3T3-L1 cells; experiment: Mouse adipocyte lipolysis assay; type: cell-based; settings: 24 hours
# Experimental: Once the cells became confluent, they were seeded into a tissue culture treated 96 well plate. […] After 14 days of differentiation, cells were treated with compounds of interest. After 24 hours post-treatment, the cell viability was assessed using CellTiter-Glo Luminescent Cell Viability Assay from Promega, and lipolysis was determined using Lipolysis Assay Kit from ZenBio.
# [7] = system: Mouse myocyte; experiment: Mouse myocyte lipolysis assay; type: cell-based
# [8] = system: naïve CD4+ T cells; experiment: Human regulatory T cell differentiation assay; type: cell-based; settings: 6 days
# Procedure, shortened: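 Naïve CD4+ T cells from healthy-donor PBMCs cultured 6 days in OpTmizer medium with 5 ng/ml TGF-β, 100 U/ml IL-2 and CD3/CD28/CD2 activator, with or without compound. Tregs (live CD4+CD3+CD25+FOXP3+, lineage-negative) measured by flow cytometry and expressed as % of total CD4+ T cells.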
compound,measurement,setting,value
CSc1ccc(C(=O)/C=C/c2cc(C)c(OC(C)(C)C(=O)O)c(C)c2)cc1 [Elafibranor],"liver fibrosis, Picro Sirius red (FIG. 49B)",[1],the fibrosis is finer
same,liver morphology: lipid vacuole size (FIG. 48B),[1],the vacuoles are smaller
"O=C(O[C@@H]1Cc2c(O)cc(O)cc2O[C@@H]1c1cc(O)c(O)c(O)c1)c1cc(O)c(O)c(O)c1 [EGCG, epigallocatechin gallate]",Insulin Sensitive % DMSO (glucose uptake),[2]; 100 nM,= (50%> ≤110%: =)
same,Insulin Sensitive % DMSO (glucose uptake),[2]; 10 μM,= (50%> ≤110%: =)
same,Insulin Resistant % DMSO (glucose uptake),[3]; 100 nM,+ (110%> ≤140%: +)
same,Insulin Resistant % DMSO (glucose uptake),[3]; 10 μM,= (50%> ≤110%: =)
same,Average CYP1A1 mRNA levels,[4]; Conc. 0.1 μM,− (− = +2-fold Vehicle)
same,Average CYP1A1 mRNA levels,[4]; Conc. 1.0 μM,− (− = +2-fold Vehicle)
same,% Change in TEER from DMSO,[5]; 100 nM + cytokines,− (≤125%: −)
same,% Change in TEER from DMSO,[5]; 1 μM + cytokines,− (≤125%: −)
same,Lipolysis Free Fatty Acids % DMSO,[6]; 100 nM,++ (50> ≤70%: ++)
same,Lipolysis Glycerol % change,[6]; 100 nM,+ (70%> ≤90%: +)
same,Lipolysis Free Fatty Acids % DMSO,[6]; 1 μM,++ (50> ≤70%: ++)
same,Lipolysis Glycerol % change,[6]; 1 μM,+ (70%> ≤90%: +)
same,Free glycerol % DMSO,[7]; 100 nM,+ (70%> <90%: +)
same,Free glycerol % DMSO,[7]; 1 μM,+ (70%> <90%: +)
same,Cell viability % DMSO,[8]; 100 nM,= (90%≥ ≤110%: =)
same,Treg induction % DMSO,[8]; 100 nM,= (90%≥ ≤110%: =)
same,Cell viability % DMSO,[8]; 1 uM,= (90%≥ ≤110%: =)
same,Treg induction % DMSO,[8]; 1 uM,= (90%≥ ≤110%: =)

# Source: patent publication US10953027B2, “Active agents and methods of their use for the treatment of metabolic disorders and nonalcoholic fatty liver disease” (Flagship Pioneering Innovations V, Inc., priority 2018, dated 2021)
